The record followed here is paper PMC3397391 (Chemistry & biology, 2012).

The assay deals with cultured P. falciparum. Briefly: Cell culture inhibition assay, cultured parasites. Conditions: in the presence of hypoxanthine; data not shown. It counts as cell-based, Plasmodium falciparum.

`O=c1[nH]cnc2c([C@@H]3N[C@H](COP(=O)(O)O)[C@@H](O)[C@H]3O)c[nH]c12` [ImmHP, Immucillin-H 5′-phosphate]: the “activity against cultured P. falciparum” value is listed as “lacks activity”.
